Source: ChEMBL document CHEMBL1150135, “Pharacine, a natural p-cyclophane and other indole derivatives from Cytophaga sp. strain AM13.1” (J Nat Prod, 2002)
Calls of active or inactive are those of the source.

Key:
Assay type in all cases: functional, organism-based
[1] = tested on: Streptomyces viridochromogenes; test: Antimicrobial activity against Streptomyces viridochromogenes by agar diffusion method
Staphylococcus aureus = test: Antimicrobial activity against Staphylococcus aureus by agar diffusion method
Candida albicans = test: Antimicrobial activity against Candida albicans by agar diffusion method
Bacillus subtilis = test: Antimicrobial activity against Bacillus subtilis by agar diffusion method
Escherichia coli = test: Antimicrobial activity against Escherichia coli by agar diffusion method
Rhizomucor miehei = test: Antimicrobial activity against Mucor miehei by agar diffusion method

Measured: Activity

c1ccc2c(Cc3cnc(Cc4c[nH]c5ccccc45)cn3)c[nH]c2c1
inactive: [1] | Staphylococcus aureus | Candida albicans | Bacillus subtilis | Escherichia coli | Rhizomucor miehei

NC(=O)Cc1ccc(O)cc1
inactive: [1] | Staphylococcus aureus | Candida albicans | Bacillus subtilis | Escherichia coli | Rhizomucor miehei

CC(C)CC(=O)NCCc1c[nH]c2ccccc12
inactive: [1] | Staphylococcus aureus | Candida albicans | Bacillus subtilis | Escherichia coli | Rhizomucor miehei

O=C1OCCCCOC(=O)c2ccc(cc2)C(=O)OCCCCOC(=O)c2ccc1cc2
inactive: [1] | Staphylococcus aureus | Candida albicans | Bacillus subtilis | Escherichia coli | Rhizomucor miehei
